Assay results reported in PubChem BioAssay (NCI).
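48-hour exposure; five concentrations; linearly interpolated endpoints. TGI: total growth inhibition.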

Tests used:
Test in all cases: DTP human tumour cell line panel, 48 h
[1] = system: 786-0 renal
[2] = system: A549 NSCLC
[3] = system: ACHN renal
[4] = system: BT-549 breast
[5] = system: CAKI-1 renal
[6] = system: CCRF-CEM leukemia
[7] = system: COLO 205 colon
[8] = system: DU-145 prostate
[9] = system: EKVX NSCLC
[10] = system: HCC-2998 colon
[11] = system: HCT-116 colon
[12] = system: HCT-15 colon
[13] = system: HOP-62 NSCLC
[14] = system: HOP-92 NSCLC
[15] = system: HS 578T breast
[16] = system: HT29 colon
[17] = system: IGROV1 ovarian
[18] = system: K-562 leukemia
[19] = system: KM12 colon
[20] = system: LOX IMVI melanoma
[21] = system: M14 melanoma
[22] = system: MALME-3M melanoma
[23] = system: MCF7 breast
[24] = system: MDA-MB-231 breast
[25] = system: MDA-MB-435
[26] = system: MDA-N
[27] = system: MOLT-4 leukemia
[28] = system: NCI-H226 lung
[29] = system: NCI-H23 lung
[30] = system: NCI-H522 lung
[31] = system: NCI/ADR-RES ovarian
[32] = system: OVCAR-3 ovarian
[33] = system: OVCAR-4 ovarian
[34] = system: OVCAR-5 ovarian
[35] = system: OVCAR-8 ovarian
[36] = system: PC-3 prostate
[37] = system: RPMI-8226 leukemia
[38] = system: RXF 393 renal
[39] = system: SF-268 CNS
[40] = system: SF-295 CNS
[41] = system: SF-539 CNS
[42] = system: SK-MEL-2 melanoma
[43] = system: SK-MEL-28 melanoma
[44] = system: SK-OV-3 ovarian
[45] = system: SN12C renal
[46] = system: SNB-19 CNS
[47] = system: SNB-75 CNS
[48] = system: SR leukemia
[49] = system: SW-620 colon
[50] = system: T-47D breast
[51] = system: TK-10 renal
[52] = system: U251 CNS
[53] = system: UACC-257 melanoma
[54] = system: UACC-62 melanoma
[55] = system: A498 renal
[56] = system: HL-60(TB) leukemia
[57] = system: NCI-H460 lung
[58] = system: SK-MEL-5 melanoma
[59] = system: UO-31 renal

Molecule Cc1cc2c(c(C(=O)NCC(=O)O)c1)Oc1c(cc(C)cc1C(=O)NCC(=O)O)S2 has a TGI [1] of over 100 µM, a TGI [2] of over 100 µM and a TGI [3] of over 100 µM. The TGI [4] was over 100 µM, the TGI [5] was over 100 µM and the TGI [6] was over 100 µM. For the same molecule, the TGI [7] was over 100 µM, the TGI [8] was over 100 µM and the TGI [9] was over 100 µM. The TGI [10] was over 100 µM, the TGI [11] was over 100 µM and the TGI [12] was over 100 µM. It also gave a TGI [13] of over 100 µM, a TGI [14] of over 100 µM and a TGI [15] of over 100 µM. For the same molecule, the TGI [16] was over 100 µM, the TGI [17] was over 100 µM and the TGI [18] was over 100 µM. The TGI [19] was over 100 µM, the TGI [20] was over 100 µM and the TGI [21] was over 100 µM. It also gave a TGI [22] of over 100 µM, a TGI [23] of over 100 µM and a TGI [24] of over 100 µM. It also gave a TGI [25] of over 100 µM, a TGI [26] of over 100 µM and a TGI [27] of over 100 µM. For the same molecule, the TGI [28] was over 100 µM, the TGI [29] was over 100 µM and the TGI [30] was over 100 µM. The TGI [31] was over 100 µM, the TGI [32] was over 100 µM and the TGI [33] was over 100 µM. For the same molecule, the TGI [34] was over 100 µM, the TGI [35] was over 100 µM and the TGI [36] was over 100 µM. It also gave a TGI [37] of over 100 µM, a TGI [38] of over 100 µM and a TGI [39] of over 100 µM. It also gave a TGI [40] of over 100 µM, a TGI [41] of over 100 µM and a TGI [42] of over 100 µM. For the same molecule, the TGI [43] was over 100 µM, the TGI [44] was over 100 µM and the TGI [45] was over 100 µM. The TGI [46] was over 100 µM, the TGI [47] was over 100 µM and the TGI [48] was over 100 µM. For the same molecule, the TGI [49] was over 100 µM, the TGI [50] was over 100 µM and the TGI [51] was over 100 µM. For the same molecule, the TGI [52] was over 100 µM, the TGI [53] was over 100 µM and the TGI [54] was over 100 µM.

For CCCCCCCCCCCNC=O, the TGI [1] was over 100 µM, the TGI [55] was 86.7 µM and the TGI [2] was over 100 µM. It also gave a TGI [3] of over 100 µM, a TGI [4] of 57.5 µM and a TGI [5] of over 100 µM. The TGI [6] was over 100 µM, the TGI [7] was over 100 µM and the TGI [8] was over 100 µM. For the same molecule, the TGI [9] was over 100 µM, the TGI [10] was 86.1 µM and the TGI [11] was over 100 µM. The TGI [12] was 71.8 µM, the TGI [56] was 39.7 µM and the TGI [13] was over 100 µM. The TGI [14] was over 100 µM, the TGI [15] was over 100 µM and the TGI [16] was over 100 µM. It also gave a TGI [17] of over 100 µM, a TGI [18] of 86.1 µM and a TGI [19] of over 100 µM. For the same molecule, the TGI [20] was over 100 µM, the TGI [21] was over 100 µM and the TGI [22] was over 100 µM. The TGI [23] was over 100 µM, the TGI [24] was over 100 µM and the TGI [25] was over 100 µM. For the same molecule, the TGI [26] was over 100 µM, the TGI [27] was 60.6 µM and the TGI [28] was over 100 µM. The TGI [29] was over 100 µM, the TGI [57] was over 100 µM and the TGI [30] was 85.3 µM. For the same molecule, the TGI [31] was 96.6 µM, the TGI [32] was over 100 µM and the TGI [33] was over 100 µM. For the same molecule, the TGI [34] was over 100 µM, the TGI [35] was over 100 µM and the TGI [36] was 66.9 µM. The TGI [37] was 78.7 µM, the TGI [38] was over 100 µM and the TGI [39] was over 100 µM. It also gave a TGI [40] of over 100 µM, a TGI [41] of over 100 µM and a TGI [42] of 66.1 µM. It also gave a TGI [43] of over 100 µM, a TGI [58] of 92 µM and a TGI [44] of over 100 µM. For the same molecule, the TGI [45] was over 100 µM, the TGI [46] was over 100 µM and the TGI [47] was over 100 µM. The TGI [49] was over 100 µM, the TGI [50] was over 100 µM and the TGI [51] was over 100 µM. The TGI [52] was over 100 µM, the TGI [53] was over 100 µM and the TGI [54] was over 100 µM. The TGI [59] was over 100 µM.

Work on O=c1c2ccccc2nc(N/N=C/c2ccc([N+](=O)[O-])cc2)n1-c1ccccc1 yielded a TGI [1] of 20.1 µM, a TGI [2] of over 100 µM and a TGI [3] of 62.9 µM. The TGI [4] was 46 µM, the TGI [5] was 49.4 µM and the TGI [6] was over 100 µM. It also gave a TGI [7] of over 100 µM, a TGI [8] of over 100 µM and a TGI [9] of 79.6 µM. For the same molecule, the TGI [11] was over 100 µM, the TGI [12] was over 100 µM and the TGI [56] was over 100 µM. It also gave a TGI [13] of 67.5 µM, a TGI [15] of 68.1 µM and a TGI [16] of over 100 µM. For the same molecule, the TGI [17] was over 100 µM, the TGI [18] was over 100 µM and the TGI [19] was over 100 µM. The TGI [20] was over 100 µM, the TGI [21] was over 100 µM and the TGI [22] was over 100 µM. For the same molecule, the TGI [23] was over 100 µM, the TGI [24] was over 100 µM and the TGI [25] was over 100 µM. It also gave a TGI [26] of over 100 µM, a TGI [27] of over 100 µM and a TGI [28] of over 100 µM. The TGI [29] was over 100 µM, the TGI [57] was over 100 µM and the TGI [30] was over 100 µM. It also gave a TGI [31] of over 100 µM, a TGI [32] of over 100 µM and a TGI [33] of over 100 µM. For the same molecule, the TGI [34] was over 100 µM, the TGI [35] was over 100 µM and the TGI [36] was over 100 µM. For the same molecule, the TGI [37] was over 100 µM, the TGI [38] was 32.7 µM and the TGI [39] was 59.3 µM. It also gave a TGI [40] of 62.2 µM, a TGI [43] of 30.1 µM and a TGI [58] of over 100 µM. It also gave a TGI [44] of 64.8 µM, a TGI [45] of over 100 µM and a TGI [46] of over 100 µM. It also gave a TGI [47] of 56.7 µM, a TGI [48] of over 100 µM and a TGI [50] of over 100 µM. For the same molecule, the TGI [51] was 56.3 µM, the TGI [52] was 48.4 µM and the TGI [53] was over 100 µM. The TGI [54] was over 100 µM and the TGI [59] was over 100 µM.

Molecule O=C1c2ccccc2C2(c3ccc(F)cc3)NCCN12 (centres undefined) has a TGI [1] of over 100 µM, a TGI [2] of over 100 µM and a TGI [3] of over 100 µM. The TGI [4] was over 100 µM, the TGI [5] was over 100 µM and the TGI [6] was over 100 µM. The TGI [7] was over 100 µM, the TGI [8] was over 100 µM and the TGI [9] was over 100 µM. The TGI [10] was over 100 µM, the TGI [11] was over 100 µM and the TGI [12] was over 100 µM. It also gave a TGI [56] of over 100 µM, a TGI [13] of over 100 µM and a TGI [15] of over 100 µM. The TGI [16] was over 100 µM, the TGI [17] was over 100 µM and the TGI [18] was over 100 µM. It also gave a TGI [19] of over 100 µM, a TGI [21] of over 100 µM and a TGI [22] of over 100 µM. It also gave a TGI [23] of over 100 µM, a TGI [24] of over 100 µM and a TGI [25] of over 100 µM. For the same molecule, the TGI [26] was over 100 µM, the TGI [27] was over 100 µM and the TGI [28] was over 100 µM. The TGI [29] was over 100 µM, the TGI [57] was over 100 µM and the TGI [30] was over 100 µM. It also gave a TGI [31] of over 100 µM, a TGI [32] of over 100 µM and a TGI [33] of over 100 µM. The TGI [34] was over 100 µM, the TGI [35] was over 100 µM and the TGI [36] was over 100 µM. For the same molecule, the TGI [37] was over 100 µM, the TGI [38] was over 100 µM and the TGI [39] was over 100 µM. For the same molecule, the TGI [40] was over 100 µM, the TGI [42] was over 100 µM and the TGI [43] was over 100 µM. It also gave a TGI [58] of over 100 µM, a TGI [44] of over 100 µM and a TGI [45] of over 100 µM. The TGI [46] was over 100 µM, the TGI [47] was over 100 µM and the TGI [49] was over 100 µM. It also gave a TGI [50] of over 100 µM, a TGI [51] of over 100 µM and a TGI [52] of over 100 µM. For the same molecule, the TGI [53] was over 100 µM, the TGI [54] was over 100 µM and the TGI [59] was over 100 µM.
